Assay results taken from BindingDB's records for patent US10343992 (Missions Therapeutics, 2019).

Target: T1, Ubiquitin carboxyl-terminal hydrolase 30 (Homo sapiens, UniProt Q70CQ3)
T1 sequence (Q70CQ3 whole entry): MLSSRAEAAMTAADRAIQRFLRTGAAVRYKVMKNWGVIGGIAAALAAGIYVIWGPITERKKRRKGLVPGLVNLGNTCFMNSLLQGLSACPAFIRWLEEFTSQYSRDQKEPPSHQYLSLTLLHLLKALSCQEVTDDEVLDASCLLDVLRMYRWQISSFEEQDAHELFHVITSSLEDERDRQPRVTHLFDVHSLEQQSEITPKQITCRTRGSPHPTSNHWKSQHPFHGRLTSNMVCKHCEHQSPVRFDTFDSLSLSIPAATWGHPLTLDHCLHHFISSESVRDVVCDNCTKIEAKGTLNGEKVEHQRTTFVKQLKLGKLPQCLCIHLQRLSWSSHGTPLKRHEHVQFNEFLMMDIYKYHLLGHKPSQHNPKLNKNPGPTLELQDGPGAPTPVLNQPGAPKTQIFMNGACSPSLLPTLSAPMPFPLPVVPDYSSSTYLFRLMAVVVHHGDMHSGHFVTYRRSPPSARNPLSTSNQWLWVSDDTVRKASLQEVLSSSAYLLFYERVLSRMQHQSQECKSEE
Assay: Biochemical Fluorescence Intensity Assay
Procedure: A typical 8-point dilution series would be 100, 30, 10, 3, 1, 0.3, 0.1, 0.03 μM final. […] USP30 was diluted in reaction buffer (40 mM Tris, pH 7.5, 0.005% Tween 20, 0.5 mg/ml BSA, 5 mM beta-mercaptoethanol) to the equivalent of 0.001 μl/well and 10 μl of diluted USP30 was added to the compound. Enzyme and compound were incubated for 30 min at room temp. […] Reactions were read immediately after addition of substrate and following a 2 h incubation at room temperature.

| IC50 | SMILES |
| --- | --- |
| in the range around 550 nM | Cn1ccc(-c2ccc(NC(=O)N3CC[C@@H]4CN(C#N)C[C@@H]43)c(F)c2)n1 [US10343992, Example 245] |
| in the range around 550 nM | CN(C(=O)CC1=NC2C=C(c3cnn(C)c3)N=CC2N1)C1CCN(C#N)C1 (configuration not stated) [US10343992, Example 263] |
